Measured values published in patent EP0279150A1, “5-Oxy-substituted-3-aminochroman compounds, processes for their preparation, pharmaceutical compositions containing them and methods of treatment therewith” (ASTRA LAKEMEDEL AKTIEBOLAG, priority 1986, dated 1988).

How the values were obtained:
5-HT₁ = experiment: Receptor binding assay, ³H-5-HT; conditions: ³H-5-HT (5 nM) binding, rat brain (striatal) membranes, 10 minutes at 37°C; read-out: IC₅₀
Procedure: (§1) The method of Peroulka & Snyder (Mol.Pharmacol. 16, 687-699, 1979) was used. Male Sprague-Dawley rats weighing 150-200 g were decapitated, and their brains were rapidly removed. The striata were dissected, pooled and homogenized in 50 mM Tris-HCl buffer (pH 7.6). The membrane fraction was collected by centrifugation (48 000 g for ten minutes), washed once with the buffer, and resuspended in 50 mM Tris HCl (pH 7.6) containing 0.1% ascorbic acid, 10 mM paragyline, 120 mM NaCl, 5 mM KCl, 2 mM CaCl₂ and 1 mM MgCl₂. The suspension was preincubated at 37°C for 10 minutes and then kept on ice until use.
(§2) The assays have been carried out using a cell harvester equipment. The incubations were made in quadruplicate, each well containing membrane suspension, ³H-spiperone (0.4 nM) or ³H-5-HT (5 nM) and the test compound in a final volume of 0.5 ml. After incubation for 10 minutes at 37°C, the contents of the wells were rapidly filtered and washed on Whatman GF/B filters using the Cell harvester. The specific binding was defined as the difference of radioligand bound in the presence and in the absence of a specific displacer (d-LSD, lµM and 5-HT, 10 µM for ³4-spiperone and ³H-5-HT, respectively). The test results are expressed as IC₅₀. The IC₅₀ value is given in nM, indicates the concentration of the test substance which reduces the amount of specifically bound radioligand by 50%..

Dopamine-D₂ = target: T1, Dopamine-D₂ (Rattus norvegicus, UniProt P61169); experiment: Receptor binding assay, ³H-spiroperidol; conditions: ³H-spiroperidol binding, rat brain membranes
T1 construct: The striata were dissected, pooled and homogenized in 50 mM Tris-HCl buffer (pH 7.6); from tissue; host or cells: rat striatum membrane fraction
T1 sequence (P61169 whole entry): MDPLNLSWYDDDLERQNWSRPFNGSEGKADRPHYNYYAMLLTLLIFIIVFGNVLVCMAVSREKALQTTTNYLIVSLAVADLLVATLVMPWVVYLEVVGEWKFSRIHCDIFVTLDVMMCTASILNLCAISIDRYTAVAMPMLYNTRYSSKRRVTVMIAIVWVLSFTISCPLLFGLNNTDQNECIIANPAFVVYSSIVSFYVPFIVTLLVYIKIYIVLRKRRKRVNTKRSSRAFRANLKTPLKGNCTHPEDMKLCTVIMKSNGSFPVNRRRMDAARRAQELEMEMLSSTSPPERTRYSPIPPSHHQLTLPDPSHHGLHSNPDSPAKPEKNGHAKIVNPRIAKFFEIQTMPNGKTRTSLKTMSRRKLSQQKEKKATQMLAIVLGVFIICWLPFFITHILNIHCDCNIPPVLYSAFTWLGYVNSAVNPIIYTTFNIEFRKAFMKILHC
Procedure: as §1, §2

5-HT₂ = target: T2, 5-HT₂ (Rattus norvegicus, UniProt P14842); experiment: Receptor binding assay, ³H-Ketanserin; conditions: ³H-Ketanserin binding, rat brain membranes
T2 construct: from tissue
T2 sequence (P14842 whole entry): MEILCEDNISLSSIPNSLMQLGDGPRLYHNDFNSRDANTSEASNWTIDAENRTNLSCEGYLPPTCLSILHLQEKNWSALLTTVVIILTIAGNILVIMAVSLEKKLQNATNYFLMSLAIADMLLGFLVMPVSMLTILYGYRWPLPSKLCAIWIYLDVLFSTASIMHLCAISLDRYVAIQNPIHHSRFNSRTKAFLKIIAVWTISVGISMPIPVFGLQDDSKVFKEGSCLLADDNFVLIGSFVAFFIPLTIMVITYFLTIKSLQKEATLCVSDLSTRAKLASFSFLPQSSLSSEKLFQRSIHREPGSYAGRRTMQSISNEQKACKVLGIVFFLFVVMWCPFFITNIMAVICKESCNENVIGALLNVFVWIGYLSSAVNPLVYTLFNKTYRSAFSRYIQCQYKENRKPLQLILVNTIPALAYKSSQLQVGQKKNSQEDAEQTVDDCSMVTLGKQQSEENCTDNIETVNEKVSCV

## CCCN(CCC)C1COc2cccc(O)c2C1 (stereo not drawn) [3-di-propylamino-5-hydroxychroman, 3-dipropylamino-5-hydroxychroman]
5-HT₁
  IC50: 83 nM
Dopamine-D₂
  activity in ³H-spiroperidol (Dopamine-D₂) receptor binding: inactive
5-HT₂
  activity in ³H-Ketanserin (5-HT₂) receptor binding: inactive
